US20090176811A1, “Substituted 5,6,7,8-Tetrahydro-pyrido[4,3-d]pyrimidine-2-yl Compounds and 5,6,7,8-Tetrahydro-quinazoline-2-yl Compounds” (GRUENENTHAL GmbH, priority 2004, published 2009)

Key:
mGluR5 receptor = molecular target: T1, mGluR5 receptor (Sus scrofa, UniProt I3LUI7); assay: Affinity for the mGluR5 receptor ([3H]-MPEP binding, pig brain homogenate); settings: 10 μM compound, 15 nM [3H]-MPEP
T1 construct: 450 μg of protein from brain homogenate is incubated; from tissue; host or cells: pig brain hemispheres without medulla, cerebellum and pons
Procedure: III. Method for Determining Affinity for the mGluR5 Receptor
Pig brain homogenate is produced by homogenisation (Polytron Pt 3000, Kinematica AG, 10,000 rpm (revolutions per minute) for 90 seconds) of pig brain hemispheres without medulla, cerebellum and pons in a buffer of pH 8.0 (30 mM Hepes, Sigma, order number H3375+1 tablet Complete Roche Diagnostics, order number 1836145 made up to 100 ml) in a ratio of 1:20 (brain weight/volume) and differential centrifugation at 900 g and 40,000 g. 450 μg of protein from brain homogenate is incubated in each case in 250 μl incubation batches in 96-well microtitre plates with 15 nM ^3[H]-MPEP (Tocris, order number R1212) and the compounds to be investigated (in each case 10 μM in the test) in the above-stated buffer at room temperature for 60 minutes.
The batches are then filtered with the assistance of a Brandel Cell Harvester (Brandel, Grade Robotic 9600) on Unifilter plates with glass filter mats (Perkin Elmer, order number 6005177) and then rewashed 3 times with buffer of the above-stated composition using 250 μl per sample. The filter plates are then dried for 60 minutes at 55° C. Then 30 μl of Ultima Gold scintillating material (Packard BioScience, order number 6013159) is added per well and after 3 hours the samples are measured using the B counter ([…], Perkin Elmer). Nonspecific binding is determined by the addition of 10 μM 2-methyl-6-(phenylethynyl)-pyridine (Tocris, order number 1212).

5-HT transporter = molecular target: T2, 5-HT transporter (Rattus norvegicus, UniProt P31652); assay: 5-HT uptake inhibition in rat brain synaptosomes (medulla and pons); format: biochemical
T2 construct: from tissue; host or cells: rat medulla and pons synaptosomes (P2 fraction)
Method in brief: (§1)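 Freshly isolated P2 synaptosomes from rat hypothalamus (noradrenalin) or medulla and pons (5-HT) incubated at room temperature under O2 with [3H]-NA for 7.5 min or [3H]-5-HT for 5 min. Uptake measured by filtration and scintillation counting.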

NA transporter = molecular target: T3, NA transporter (Rattus norvegicus, UniProt Q63380); assay: Noradrenalin uptake inhibition in rat brain synaptosomes (hypothalamus); format: biochemical
T3 construct: from tissue; host or cells: rat hypothalamus synaptosomes (P2 fraction)
Method in brief: as §1

T1 sequence (I3LUI7 19-1212): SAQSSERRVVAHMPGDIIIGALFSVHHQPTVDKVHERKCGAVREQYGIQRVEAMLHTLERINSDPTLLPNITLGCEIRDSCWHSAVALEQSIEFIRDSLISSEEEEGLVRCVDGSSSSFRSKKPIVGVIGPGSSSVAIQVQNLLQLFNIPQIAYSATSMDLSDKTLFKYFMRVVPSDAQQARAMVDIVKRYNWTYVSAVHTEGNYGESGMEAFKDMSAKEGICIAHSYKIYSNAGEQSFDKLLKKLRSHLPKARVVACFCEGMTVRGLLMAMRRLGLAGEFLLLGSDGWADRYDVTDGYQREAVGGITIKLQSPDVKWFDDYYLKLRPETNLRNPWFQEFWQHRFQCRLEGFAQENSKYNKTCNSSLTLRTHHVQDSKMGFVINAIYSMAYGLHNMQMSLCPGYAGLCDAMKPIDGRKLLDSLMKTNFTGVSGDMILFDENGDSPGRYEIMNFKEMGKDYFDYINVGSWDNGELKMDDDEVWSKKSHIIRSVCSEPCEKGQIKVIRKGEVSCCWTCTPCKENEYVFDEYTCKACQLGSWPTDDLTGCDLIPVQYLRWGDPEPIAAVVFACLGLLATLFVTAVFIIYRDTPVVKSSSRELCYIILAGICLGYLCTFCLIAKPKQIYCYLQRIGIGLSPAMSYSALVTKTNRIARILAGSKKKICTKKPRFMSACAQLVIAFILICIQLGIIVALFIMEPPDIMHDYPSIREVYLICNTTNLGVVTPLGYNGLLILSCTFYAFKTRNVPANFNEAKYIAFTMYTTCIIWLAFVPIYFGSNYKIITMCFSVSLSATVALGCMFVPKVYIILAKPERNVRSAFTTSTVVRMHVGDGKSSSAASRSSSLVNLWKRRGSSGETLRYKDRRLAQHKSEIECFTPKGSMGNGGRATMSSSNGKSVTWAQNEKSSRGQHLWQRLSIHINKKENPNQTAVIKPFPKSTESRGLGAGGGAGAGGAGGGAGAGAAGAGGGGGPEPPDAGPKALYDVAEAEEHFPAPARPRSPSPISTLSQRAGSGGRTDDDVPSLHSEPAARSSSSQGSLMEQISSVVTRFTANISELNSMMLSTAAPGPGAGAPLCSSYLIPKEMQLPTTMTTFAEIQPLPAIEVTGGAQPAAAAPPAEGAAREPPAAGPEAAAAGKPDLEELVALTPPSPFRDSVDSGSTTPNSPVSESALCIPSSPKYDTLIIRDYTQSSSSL
T2 sequence (P31652 whole entry): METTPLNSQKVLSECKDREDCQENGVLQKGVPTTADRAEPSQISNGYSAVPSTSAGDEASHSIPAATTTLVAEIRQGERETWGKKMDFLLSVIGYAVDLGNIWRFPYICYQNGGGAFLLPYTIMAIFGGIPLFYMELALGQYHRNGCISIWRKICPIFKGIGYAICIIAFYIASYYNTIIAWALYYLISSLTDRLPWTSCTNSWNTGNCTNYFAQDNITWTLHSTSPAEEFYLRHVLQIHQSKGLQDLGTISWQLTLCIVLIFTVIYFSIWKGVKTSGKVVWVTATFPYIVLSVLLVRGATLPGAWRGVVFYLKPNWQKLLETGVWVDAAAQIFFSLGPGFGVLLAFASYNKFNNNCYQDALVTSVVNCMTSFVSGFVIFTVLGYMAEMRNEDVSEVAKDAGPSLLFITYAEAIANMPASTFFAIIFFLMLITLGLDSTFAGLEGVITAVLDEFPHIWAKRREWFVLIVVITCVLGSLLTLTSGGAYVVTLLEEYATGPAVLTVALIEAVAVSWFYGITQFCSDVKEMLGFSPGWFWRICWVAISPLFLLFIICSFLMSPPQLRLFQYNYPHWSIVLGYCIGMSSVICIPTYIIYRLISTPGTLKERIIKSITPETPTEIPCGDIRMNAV
T3 sequence (Q63380 1-617): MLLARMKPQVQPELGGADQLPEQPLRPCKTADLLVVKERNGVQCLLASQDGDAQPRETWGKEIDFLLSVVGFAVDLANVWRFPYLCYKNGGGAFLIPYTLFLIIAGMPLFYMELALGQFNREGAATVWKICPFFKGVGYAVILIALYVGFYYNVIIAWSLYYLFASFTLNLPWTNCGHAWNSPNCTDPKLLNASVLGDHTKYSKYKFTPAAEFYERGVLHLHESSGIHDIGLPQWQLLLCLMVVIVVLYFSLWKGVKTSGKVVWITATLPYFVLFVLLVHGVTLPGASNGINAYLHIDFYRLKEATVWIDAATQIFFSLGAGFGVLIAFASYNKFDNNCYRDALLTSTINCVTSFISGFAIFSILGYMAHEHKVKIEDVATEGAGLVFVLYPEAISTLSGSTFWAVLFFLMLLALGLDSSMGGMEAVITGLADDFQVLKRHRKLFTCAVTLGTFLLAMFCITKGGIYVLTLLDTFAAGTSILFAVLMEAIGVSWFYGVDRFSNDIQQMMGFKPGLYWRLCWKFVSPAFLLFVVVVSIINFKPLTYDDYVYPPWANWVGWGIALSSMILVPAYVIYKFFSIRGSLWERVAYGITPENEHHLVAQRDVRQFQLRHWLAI

Structure (SMILES): Cc1cc(C(=O)NC2CCc3nc(NC(=O)c4cccs4)ncc3C2)ccc1Br (stereo not drawn) [Example 115, thiophene-2-carboxylic acid [6-(4-bromo-3-methyl-benzoylamino)-5,6,7,8-tetrahydro-quinazolin-2-yl]-amide]
- inhibition at 10 µM (mGluR5 receptor): 34.3%
- inhibition at 1 µM (5-HT transporter): 56%
- inhibition at 10 µM (NA transporter): 49%

Structure (SMILES): CCc1ccc(C(=O)Nc2ncc3c(n2)CCN(S(=O)(=O)c2ccc(OC)cc2)C3)cc1 [Example 172, 4-ethyl-N-[6-(4-methoxy-benzenesulfonyl)-5,6,7,8-tetrahydro-pyrido[4,3-d]pyrimidin-2-yl]-benzamide]
- inhibition at 10 µM (mGluR5 receptor): 70.1%
- inhibition at 1 µM (5-HT transporter): 57%
- inhibition at 10 µM (NA transporter): 85%

Structure (SMILES): Cc1ccc(C(=O)Nc2ncc3c(n2)CCN(C(=O)COc2cccc(Cl)c2)C3)cc1 [Example 189, N-{6-[2-(3-chloro-phenoxy)-acetyl]-5,6,7,8-tetrahydro-pyrido[4,3-d]pyrimidin-2-yl}-4-methyl-benzamide]
- inhibition at 10 µM (mGluR5 receptor): 39.5%
- inhibition at 1 µM (5-HT transporter): 46%
- inhibition at 10 µM (NA transporter): 53%

Structure (SMILES): CCCCC(C)CCC(=O)N1CCc2nc(NC(=O)c3cccc4ccccc34)ncc2C1 (stereo not drawn) [Example 193, naphthalene-1-carboxylic acid [6-(4-methyl-octanoyl)-5,6,7,8-tetrahydro-pyrido[4,3-d]pyrimidin-2-yl]-amide]
- inhibition at 10 µM (mGluR5 receptor): 51.8%
- inhibition at 1 µM (5-HT transporter): 38%
- inhibition at 10 µM (NA transporter): 43%
